Experimental data published in ChEMBL document CHEMBL5380833 (J Med Chem, 2023).
Activity calls are given as the source filed them. The rule behind the calls is not given here.

How the values were obtained:
[1] = Half life in Balb/c mouse at 10 mg/kg, ip measured upto 24 hrs by LC-MS/MS analysis; type: ADME, organism-based; conditions: in vivo
[2] = biological target: T1, Tyrosine-protein kinase ZAP-70 (Homo sapiens) (UniProt P43403); assay: Induction of degradation of ZAP-70 in human Jurkat cells at 0.01 to 10 uM by immunoblotting analysis; type: cell-based; conditions: dose 0.01-10 µM
T1 sequence (whole entry): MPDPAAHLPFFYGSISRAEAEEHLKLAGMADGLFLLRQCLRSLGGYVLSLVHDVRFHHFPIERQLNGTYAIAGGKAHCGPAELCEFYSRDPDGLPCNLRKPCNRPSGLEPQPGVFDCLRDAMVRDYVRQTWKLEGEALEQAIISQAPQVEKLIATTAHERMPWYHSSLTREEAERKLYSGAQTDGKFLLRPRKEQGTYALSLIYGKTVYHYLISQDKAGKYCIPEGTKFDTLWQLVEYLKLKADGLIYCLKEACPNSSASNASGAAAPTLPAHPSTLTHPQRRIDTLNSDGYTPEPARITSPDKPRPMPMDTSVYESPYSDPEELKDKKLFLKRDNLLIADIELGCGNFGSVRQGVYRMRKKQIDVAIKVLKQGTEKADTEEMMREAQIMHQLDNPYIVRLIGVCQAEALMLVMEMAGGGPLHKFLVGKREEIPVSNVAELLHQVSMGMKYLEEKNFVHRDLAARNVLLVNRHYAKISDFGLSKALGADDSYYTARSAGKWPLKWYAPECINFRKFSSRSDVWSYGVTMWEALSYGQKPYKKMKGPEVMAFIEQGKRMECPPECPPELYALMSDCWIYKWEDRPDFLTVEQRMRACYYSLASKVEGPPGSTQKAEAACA

[3] = biological target: T2, Protein cereblon/Tyrosine-protein kinase ITK/TSK (Homo sapiens, UniProt Q08881+Q96SW2); assay: PROTAC activity at CRBN/ITK in human Jurkat cells assessed as downregulation of ITK protein at 100 nM preincubated with cells for 12 hrs followed by compound washout measured after 24 hrs; type: cell-based
Target sequence in this assay (Q08881 whole entry, looked up): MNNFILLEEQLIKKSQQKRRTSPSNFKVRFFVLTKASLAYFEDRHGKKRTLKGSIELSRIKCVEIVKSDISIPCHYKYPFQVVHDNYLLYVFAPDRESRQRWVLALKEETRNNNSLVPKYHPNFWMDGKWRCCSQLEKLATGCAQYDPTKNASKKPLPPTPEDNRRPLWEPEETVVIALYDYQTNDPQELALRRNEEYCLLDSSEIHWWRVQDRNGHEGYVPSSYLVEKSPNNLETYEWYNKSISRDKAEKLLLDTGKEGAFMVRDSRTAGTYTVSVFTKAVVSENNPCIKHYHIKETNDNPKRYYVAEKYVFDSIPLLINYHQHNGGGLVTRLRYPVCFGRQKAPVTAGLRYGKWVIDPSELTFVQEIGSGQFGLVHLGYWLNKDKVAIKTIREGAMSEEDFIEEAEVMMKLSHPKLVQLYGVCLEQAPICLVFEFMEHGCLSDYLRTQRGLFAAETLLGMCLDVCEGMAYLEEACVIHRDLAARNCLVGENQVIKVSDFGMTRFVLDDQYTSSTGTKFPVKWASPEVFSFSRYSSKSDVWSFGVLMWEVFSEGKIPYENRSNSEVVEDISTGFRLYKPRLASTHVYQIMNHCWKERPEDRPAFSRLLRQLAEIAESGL
Target sequence in this assay (Q96SW2 whole entry, looked up): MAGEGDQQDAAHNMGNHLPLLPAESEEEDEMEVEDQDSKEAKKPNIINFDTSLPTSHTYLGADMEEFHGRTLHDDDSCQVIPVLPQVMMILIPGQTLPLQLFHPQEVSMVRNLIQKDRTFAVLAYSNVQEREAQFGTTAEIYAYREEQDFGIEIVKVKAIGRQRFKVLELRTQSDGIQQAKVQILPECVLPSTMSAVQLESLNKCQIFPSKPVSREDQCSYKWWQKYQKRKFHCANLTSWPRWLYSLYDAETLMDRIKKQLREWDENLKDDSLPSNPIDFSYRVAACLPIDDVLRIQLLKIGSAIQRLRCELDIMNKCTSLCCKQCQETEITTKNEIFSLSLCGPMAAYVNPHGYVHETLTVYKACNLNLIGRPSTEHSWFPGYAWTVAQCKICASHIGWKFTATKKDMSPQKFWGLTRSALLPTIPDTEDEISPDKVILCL

[4] = AUC (0 to t) in Balb/c mouse at 10 mg/kg, ip measured upto 24 hrs by LC-MS/MS analysis; type: ADME, organism-based; parameters: time < 24 hrs, dose 10 mg/kg, route ip; conditions: in vivo
[5] = biological target: T2, Protein cereblon/Tyrosine-protein kinase ITK/TSK; assay: PROTAC activity at CRBN/ITK in human Jurkat cells assessed as maximum degradation at 0.01 to 10 uM by Western blot analysis relative to control; type: cell-based; conditions: dose 0.01-10 µM
Target sequence in this assay (Q08881 whole entry, looked up): as the sequence (Q08881 whole entry, looked up) above
Target sequence in this assay (Q96SW2 whole entry, looked up): as the sequence (Q96SW2 whole entry, looked up) above

[6] = biological target: T2, Protein cereblon/Tyrosine-protein kinase ITK/TSK; assay: PROTAC activity at CRBN/ITK in human Jurkat cells assessed as reduction in ITK protein at 100 nM measured within 4 hrs; type: cell-based
Target sequence in this assay (Q08881 whole entry, looked up): as the sequence (Q08881 whole entry, looked up) above
Target sequence in this assay (Q96SW2 whole entry, looked up): as the sequence (Q96SW2 whole entry, looked up) above

[7] = MRT last in Balb/c mouse at 5 mg/kg, iv measured upto 24 hrs by LC-MS/MS analysis; type: ADME, organism-based; conditions: in vivo, iv, 5 mg/kg, 24 h
[8] = biological target: T2, Protein cereblon/Tyrosine-protein kinase ITK/TSK; assay: PROTAC activity at CRBN/ITK in human Jurkat cells assessed as induction of ITK degradation at 100 nM measured after 2 hrs by Western blot analysis; type: cell-based
Target sequence in this assay (Q08881 whole entry, looked up): as the sequence (Q08881 whole entry, looked up) above
Target sequence in this assay (Q96SW2 whole entry, looked up): as the sequence (Q96SW2 whole entry, looked up) above

[9] = Clearance in Balb/c mouse at 10 mg/kg, ip measured upto 24 hrs by LC-MS/MS analysis; type: ADME, organism-based; conditions: in vivo
[10] = Cmax in Balb/c mouse at 10 mg/kg, ip measured upto 24 hrs by LC-MS/MS analysis; type: ADME, organism-based; parameters: dose 10 mg/kg, time < 24 hrs, route ip; conditions: in vivo
[11] = Toxicity in Balb/c mouse assessed as side effects at 10 mg/kg, ip measured upto 24 hrs by LC-MS/MS analysis; type: organism-based; conditions: in vivo
[12] = biological target: T2, Protein cereblon/Tyrosine-protein kinase ITK/TSK; assay: PROTAC activity at CRBN/ITK in human Jurkat cells assessed as induction of ITK degradation at 100 nM pretreated with 5-amino-2-(2,6-dioxopiperidin-3-yl)isoindoline-1,3-dione for 1 hr followed by compound addition and measured after 2 hrs by Western blot analysis; type: cell-based
Target sequence in this assay (Q08881 whole entry, looked up): as the sequence (Q08881 whole entry, looked up) above
Target sequence in this assay (Q96SW2 whole entry, looked up): as the sequence (Q96SW2 whole entry, looked up) above

[13] = biological target: Tyrosine-protein kinase Lck (Homo sapiens) (UniProt P06239); assay: Induction of degradation of LCK in human Jurkat cells at 0.01 to 10 uM by immunoblotting analysis; type: cell-based; conditions: dose 0.01-10 µM
[14] = biological target: Tyrosine-protein kinase BTK (Homo sapiens) (UniProt Q06187); assay: Induction of degradation of BTK in human Ramos cells at 0.01 to 10 uM by immunoblotting analysis; type: cell-based; conditions: dose 0.01-10 µM
[15] = Bioavailability in Balb/c mouse at 10 mg/kg, ip measured upto 24 hrs by LC-MS/MS analysis; type: ADME, organism-based; conditions: in vivo
[16] = AUC (0 to infinity) in Balb/c mouse at 5 mg/kg, iv measured upto 24 hrs by LC-MS/MS analysis; type: ADME, organism-based; parameters: time < 24 hrs, dose 5 mg/kg, route iv; conditions: in vivo
[17] = biological target: T2, Protein cereblon/Tyrosine-protein kinase ITK/TSK; assay: PROTAC activity at CRBN/ITK in human MOLT-4 cells assessed as induction of ITK degradation; type: cell-based
Target sequence in this assay (Q08881 whole entry): as the sequence (Q08881 whole entry, looked up) above
Target sequence in this assay (Q96SW2 whole entry): as the sequence (Q96SW2 whole entry, looked up) above

[18] = Toxicity in Balb/c mouse assessed as drug tolerance at 10 mg/kg, ip measured upto 24 hrs by LC-MS/MS analysis; type: organism-based; conditions: in vivo
[19] = Cmax in Balb/c mouse at 5 mg/kg, iv measured upto 24 hrs by LC-MS/MS analysis; type: ADME, organism-based; parameters: time < 24 hrs, dose 5 mg/kg, route iv; conditions: in vivo
Jurkat = assay: Inhibition of TCR signalling in human Jurkat cells assessed as reduction in PLCgamma1 phosphorylation preincubated with cells for 12 hrs followed by anti-CD-2 antibody stimulation for 5 mins by Western blot analysis; type: cell-based; conditions: dose 0.01-3 µM
[20] = Half life in Balb/c mouse at 5 mg/kg, iv measured upto 24 hrs by LC-MS/MS analysis; type: ADME, organism-based; conditions: in vivo
[21] = Toxicity in Balb/c mouse assessed as drug tolerance at 5 mg/kg, iv measured upto 24 hrs by LC-MS/MS analysis; type: organism-based; conditions: in vivo
[22] = biological target: T2, Protein cereblon/Tyrosine-protein kinase ITK/TSK; assay: PROTAC activity at CRBN/ITK in Jurkat cells assessed as induction of ITK degradation at 100 nM pretreated with GNE-9822 for 1 hr followed by compound addition and measured after 2 hrs by Western blot analysis; type: cell-based
Target sequence in this assay (Q08881 whole entry, looked up): as the sequence (Q08881 whole entry, looked up) above
Target sequence in this assay (Q96SW2 whole entry, looked up): as the sequence (Q96SW2 whole entry, looked up) above

[23] = biological target: Tyrosine-protein kinase Yes (Homo sapiens) (UniProt P07947); assay: Induction of degradation of YES in human Ramos cells at 0.01 to 10 uM by immunoblotting analysis; type: cell-based; conditions: dose 0.01-10 µM
Sequence of Tyrosine-protein kinase Yes (Homo sapiens) (P07947 2-543 limits assumed): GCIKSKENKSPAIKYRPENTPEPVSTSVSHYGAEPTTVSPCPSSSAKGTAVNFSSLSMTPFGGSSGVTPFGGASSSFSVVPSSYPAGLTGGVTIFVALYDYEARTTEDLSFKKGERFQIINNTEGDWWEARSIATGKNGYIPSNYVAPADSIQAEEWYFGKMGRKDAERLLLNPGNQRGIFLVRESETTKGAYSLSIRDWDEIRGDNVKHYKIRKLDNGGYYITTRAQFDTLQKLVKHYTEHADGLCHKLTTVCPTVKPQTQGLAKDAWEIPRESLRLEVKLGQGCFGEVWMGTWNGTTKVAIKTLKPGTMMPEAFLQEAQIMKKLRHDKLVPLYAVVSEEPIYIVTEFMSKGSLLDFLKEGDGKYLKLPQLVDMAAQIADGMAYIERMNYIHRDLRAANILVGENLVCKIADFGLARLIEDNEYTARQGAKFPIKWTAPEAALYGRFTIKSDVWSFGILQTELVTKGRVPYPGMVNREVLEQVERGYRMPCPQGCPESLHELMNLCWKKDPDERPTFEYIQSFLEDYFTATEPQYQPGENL

Sequence of Tyrosine-protein kinase Lck (Homo sapiens) (P06239 2-509 limits assumed): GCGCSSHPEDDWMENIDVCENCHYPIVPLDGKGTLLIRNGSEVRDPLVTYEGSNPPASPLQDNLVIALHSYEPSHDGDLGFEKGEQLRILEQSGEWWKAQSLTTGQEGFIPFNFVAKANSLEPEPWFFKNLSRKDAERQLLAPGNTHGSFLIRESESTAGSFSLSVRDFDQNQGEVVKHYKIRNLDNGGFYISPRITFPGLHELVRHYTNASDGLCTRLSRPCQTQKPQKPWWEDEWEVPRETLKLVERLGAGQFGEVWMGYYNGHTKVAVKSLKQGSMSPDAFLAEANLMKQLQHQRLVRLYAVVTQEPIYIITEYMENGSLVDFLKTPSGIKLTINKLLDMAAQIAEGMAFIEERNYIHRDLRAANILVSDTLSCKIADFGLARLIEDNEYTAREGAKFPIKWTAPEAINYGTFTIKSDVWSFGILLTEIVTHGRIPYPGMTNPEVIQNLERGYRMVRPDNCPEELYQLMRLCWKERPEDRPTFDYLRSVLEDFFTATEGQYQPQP
Sequence of Tyrosine-protein kinase BTK (Homo sapiens) (Q06187 whole entry): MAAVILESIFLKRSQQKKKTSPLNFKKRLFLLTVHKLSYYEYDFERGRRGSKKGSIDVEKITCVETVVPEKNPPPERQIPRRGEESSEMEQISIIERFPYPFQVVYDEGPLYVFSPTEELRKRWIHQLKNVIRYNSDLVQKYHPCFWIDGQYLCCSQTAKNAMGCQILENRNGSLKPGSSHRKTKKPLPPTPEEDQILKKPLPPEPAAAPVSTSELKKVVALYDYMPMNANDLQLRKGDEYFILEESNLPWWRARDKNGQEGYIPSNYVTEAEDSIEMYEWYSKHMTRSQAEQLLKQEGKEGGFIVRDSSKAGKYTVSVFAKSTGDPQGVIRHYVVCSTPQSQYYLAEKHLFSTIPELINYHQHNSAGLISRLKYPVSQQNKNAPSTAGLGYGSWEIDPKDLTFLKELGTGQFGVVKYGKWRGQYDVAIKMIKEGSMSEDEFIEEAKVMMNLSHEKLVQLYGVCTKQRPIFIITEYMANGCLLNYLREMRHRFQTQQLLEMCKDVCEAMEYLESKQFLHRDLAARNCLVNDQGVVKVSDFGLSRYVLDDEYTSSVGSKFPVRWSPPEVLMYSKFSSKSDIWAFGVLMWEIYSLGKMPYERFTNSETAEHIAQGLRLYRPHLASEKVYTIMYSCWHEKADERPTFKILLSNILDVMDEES

For `CN(CCCCCC(=O)Nc1ccc2c(c1)C(=O)N(C1CCC(=O)NC1=O)C2=O)CC[C@@H](c1ccccc1)n1cc(NC(=O)c2n[nH]c3c2CCC(C)(C)C3)cn1.O=C(O)C(F)(F)F` (some centres undefined), the half-life [1] was 1.95 h, the Activity [2] was “inactive” and the Activity [3] was “Active”. For the same molecule, the AUC(0-t) at 24 h [4] was 1560 ng·h/mL, the Emax [5] was 99% and the Activity [6] was “Active”. The MRTlast [7] was 0.39 h, the Activity [8] was “Active” and the CL/F [9] was 109 mL/min/kg. For the same molecule, the Cmax [10] was 1240 ng/mL, the Activity [11] was “Non-Toxic” and the Activity [12] was “inactive”. The Activity [13] was “inactive”, the Activity [14] was “inactive” and the bioavailability [15] was 73.5%. For the same molecule, the AUC(0-inf) [16] was 1080 ng·h/mL, the DC50 [17] was 6 nM and the Activity [18] was “Non-Toxic”. For the same molecule, the Cmax [19] was 3320 ng/mL, the inhibition (Jurkat) was “Dose-Dependent Effect” and the half-life [20] was 1.88 h. The Activity [21] was “Non-Toxic”, the Activity [22] was “inactive” and the Activity [23] was “inactive”.
